Test results taken from ChEMBL document CHEMBL1156106 (J Med Chem, 2009).

How the values were obtained:
Mus musculus [1] = assay: Antidepressant activity in ip dosed mouse assessed as duration of locomotor activity; format: functional
Rattus norvegicus [2] = assay: Effect on behavioural activity in rat assessed as cocaine-induced lever response at 5 mg/kg, ip pretreated with cocaine for 15 mins by drug-discrimination studies; format: functional; details: route intraperitoneal
Rattus norvegicus [3] = assay: Effect on behavioural activity in ip dosed rat assessed as cocaine-induced lever response pretreated with cocaine by drug-discrimination studies; format: functional
Mus musculus [4] = assay: Antidepressant activity in ip dosed mouse assessed as stimulation of locomotor activity relative to cocaine; format: functional
Rattus norvegicus [5] = assay: Effect on behavioural activity in rat assessed as cocaine-induced lever response at 2.5 mg/kg, ip pretreated with cocaine for 15 mins by drug-discrimination studies; format: functional; details: route intraperitoneal
Mus musculus [6] = assay: Antidepressant activity in ip dosed mouse assessed as stimulation of locomotor activity; format: functional
Rattus norvegicus [7] = assay: Effect on behavioural activity in rat assessed as cocaine-induced lever response at 25 mg/kg, ip pretreated with cocaine for 15 mins by drug-discrimination studies; format: functional; details: route intraperitoneal
Mus musculus [8] = assay: Antidepressant activity in ip dosed mouse assessed as time to reach peak stimulation of locomotor activity; format: functional
[9] = molecular target: Sodium-dependent serotonin transporter (Homo sapiens, UniProt P31645); assay: biochemical; format: cell-based, HEK293
Chain of Sodium-dependent serotonin transporter (P31645 whole entry): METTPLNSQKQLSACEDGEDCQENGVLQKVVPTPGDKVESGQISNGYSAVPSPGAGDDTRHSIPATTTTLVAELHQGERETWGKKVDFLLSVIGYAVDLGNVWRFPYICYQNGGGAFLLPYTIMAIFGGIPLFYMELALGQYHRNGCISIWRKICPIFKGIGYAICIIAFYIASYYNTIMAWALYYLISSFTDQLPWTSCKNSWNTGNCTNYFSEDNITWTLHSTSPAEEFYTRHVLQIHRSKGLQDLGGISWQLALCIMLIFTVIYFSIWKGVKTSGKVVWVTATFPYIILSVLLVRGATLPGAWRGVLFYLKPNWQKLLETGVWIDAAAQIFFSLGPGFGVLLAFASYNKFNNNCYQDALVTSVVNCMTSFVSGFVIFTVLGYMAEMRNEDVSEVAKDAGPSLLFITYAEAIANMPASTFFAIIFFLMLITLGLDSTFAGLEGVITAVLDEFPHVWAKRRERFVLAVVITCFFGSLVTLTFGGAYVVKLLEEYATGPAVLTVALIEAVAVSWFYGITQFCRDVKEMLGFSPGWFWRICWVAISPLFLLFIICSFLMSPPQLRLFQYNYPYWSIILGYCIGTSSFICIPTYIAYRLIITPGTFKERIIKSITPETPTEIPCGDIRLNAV

[10] = molecular target: Sodium-dependent dopamine transporter (Homo sapiens, UniProt Q01959); assay: Displacement of [125I]RTI55 from cloned human DAT expressed in HEK293 cells; format: cell-based
Chain of Sodium-dependent dopamine transporter (Q01959 whole entry): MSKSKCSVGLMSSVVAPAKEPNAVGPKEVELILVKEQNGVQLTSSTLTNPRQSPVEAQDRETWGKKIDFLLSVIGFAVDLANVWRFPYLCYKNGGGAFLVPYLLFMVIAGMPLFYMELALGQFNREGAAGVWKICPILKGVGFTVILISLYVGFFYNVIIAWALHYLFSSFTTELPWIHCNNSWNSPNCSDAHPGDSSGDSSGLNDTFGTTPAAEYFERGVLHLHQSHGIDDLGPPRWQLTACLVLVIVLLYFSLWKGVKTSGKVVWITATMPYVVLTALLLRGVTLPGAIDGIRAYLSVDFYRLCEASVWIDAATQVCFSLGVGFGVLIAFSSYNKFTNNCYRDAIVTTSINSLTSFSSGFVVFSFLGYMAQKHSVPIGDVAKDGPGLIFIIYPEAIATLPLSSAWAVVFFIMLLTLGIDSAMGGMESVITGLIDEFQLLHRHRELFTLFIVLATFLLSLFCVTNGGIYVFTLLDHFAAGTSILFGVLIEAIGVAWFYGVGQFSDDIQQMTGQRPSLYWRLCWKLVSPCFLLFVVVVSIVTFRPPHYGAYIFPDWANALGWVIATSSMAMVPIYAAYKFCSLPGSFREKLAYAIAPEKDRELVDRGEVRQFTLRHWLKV

[11] = molecular target: Sodium-dependent noradrenaline transporter (Homo sapiens, UniProt P23975); assay: Displacement of [125I]RTI55 from cloned human NET expressed in HEK293 cells; format: cell-based
Chain of Sodium-dependent noradrenaline transporter (P23975 whole entry): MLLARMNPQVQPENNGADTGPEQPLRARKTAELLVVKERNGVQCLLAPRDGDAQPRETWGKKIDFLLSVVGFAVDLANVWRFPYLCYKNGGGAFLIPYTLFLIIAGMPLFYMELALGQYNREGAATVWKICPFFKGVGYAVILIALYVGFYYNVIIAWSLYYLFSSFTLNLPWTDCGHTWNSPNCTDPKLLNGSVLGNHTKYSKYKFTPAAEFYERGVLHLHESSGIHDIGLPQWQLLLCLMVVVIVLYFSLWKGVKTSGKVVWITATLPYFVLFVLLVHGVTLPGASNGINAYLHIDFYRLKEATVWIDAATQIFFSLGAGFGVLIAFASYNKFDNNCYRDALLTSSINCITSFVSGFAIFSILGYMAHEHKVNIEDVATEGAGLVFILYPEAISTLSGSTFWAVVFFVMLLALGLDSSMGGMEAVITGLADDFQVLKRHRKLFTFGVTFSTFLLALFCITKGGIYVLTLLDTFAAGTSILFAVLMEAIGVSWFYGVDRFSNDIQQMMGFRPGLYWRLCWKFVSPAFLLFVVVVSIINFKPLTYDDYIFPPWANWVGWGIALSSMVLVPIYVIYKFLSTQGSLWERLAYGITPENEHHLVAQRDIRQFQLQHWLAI

Rattus norvegicus [12] = assay: Effect on behavioural activity in rat assessed as cocaine-induced lever response at 10 mg/kg, ip pretreated with cocaine for 15 mins by drug-discrimination studies; format: functional; details: route intraperitoneal
Rattus norvegicus [13] = assay: Effect on behavioural activity in rat assessed as cocaine-induced lever response at 10 mg/kg, po pretreated with cocaine for 90 mins by drug-discrimination studies; format: functional
Rattus norvegicus [14] = assay: Effect on behavioural activity in rat assessed as cocaine-induced lever response at 5 mg/kg, po pretreated with cocaine for 360 mins by drug-discrimination studies; format: functional
Rattus norvegicus [15] = assay: Effect on behavioural activity in rat assessed as cocaine-induced lever response at 10 mg/kg, po pretreated with cocaine for 360 mins by drug-discrimination studies; format: functional
Rattus norvegicus [16] = assay: Effect on behavioural activity in rat assessed as cocaine-induced lever response at 2.5 mg/kg, po pretreated with cocaine for 45 mins by drug-discrimination studies; format: functional
Rattus norvegicus [17] = assay: Effect on behavioural activity in po dosed rat assessed as cocaine-induced lever response pretreated with cocaine by drug-discrimination studies; format: functional
Rattus norvegicus [18] = assay: Effect on behavioural activity in rat assessed as cocaine-induced lever response at 5 mg/kg, po pretreated with cocaine for 45 mins by drug-discrimination studies; format: functional
Rattus norvegicus [19] = assay: Effect on behavioural activity in rat assessed as cocaine-induced lever response at 10 mg/kg, po pretreated with cocaine for 180 mins by drug-discrimination studies; format: functional
Rattus norvegicus [20] = assay: Effect on behavioural activity in rat assessed as cocaine-induced lever response at 2.5 mg/kg, po pretreated with cocaine for 90 mins by drug-discrimination studies; format: functional
Rattus norvegicus [21] = assay: Effect on behavioural activity in rat assessed as cocaine-induced lever response at 2.5 mg/kg, po pretreated with cocaine for 180 mins by drug-discrimination studies; format: functional
Rattus norvegicus [22] = assay: Effect on behavioural activity in rat assessed as cocaine-induced lever response at 2.5 mg/kg, po pretreated with cocaine for 360 mins by drug-discrimination studies; format: functional
Rattus norvegicus [23] = assay: Effect on behavioural activity in rat assessed as cocaine-induced lever response at 5 mg/kg, po pretreated with cocaine for 180 mins by drug-discrimination studies; format: functional

SMILES	Time (Mus musculus [1]) [min]	ED50 (Rattus norvegicus [3]) [mg/kg]	Activity (Mus musculus [4])	ED50 (Mus musculus [6]) [mg/kg]	Time to peak locomotor stimulation (Mus musculus [8]) [min]	Ki [9] [µM]	Ki [10] [µM]	Ki [11] [µM]	also measured
CCC(NC(C)(C)C)C(=O)c1cccc(Cl)c1 (stereo not given)	360	12.2	62%	18.6	0	–	–	–	Activity (Rattus norvegicus [2]): 33.4%; Activity (Rattus norvegicus [5]): 0.6%; Activity (Rattus norvegicus [7]): 100%
CC(CNC(C)(C)C)C(=O)c1cccc(Cl)c1 (stereo not given)	–	–	–	–	–	> 10	> 10	> 10	–
Cc1cccc(C(=O)C(C)NC(C)(C)C)c1 (stereo not given)	50	–	76%	–	10	> 10	–	> 10	–
CCN(CC)C(C)C(=O)c1cccc(Cl)c1 (stereo not given)	130	3.2	90%	–	20	> 10	–	–	Activity (Rattus norvegicus [2]): 16.7%; Activity (Rattus norvegicus [12]): 98.6%; Activity (Rattus norvegicus [5]): 0%; Activity (Rattus norvegicus [7]): 74.8%
CC(NC(C)(C)C)C(=O)c1cccs1 (stereo not given)	–	–	–	–	–	> 10	> 10	> 10	–
COC(=O)[C@H]1[C@@H](OC(=O)c2ccccc2)C[C@@H]2CC[C@H]1N2C [COCAINE]	40	5.9	–	7.8	0	–	–	–	–
Cc1ccc(C(=O)C(C)NC(C)(C)C)cc1Cl (stereo not given)	60	–	>=77%	≥ 35.5	10	–	–	–	–
CC(NC(C)(C)C)C(=O)c1cc(Cl)cc(Cl)c1 (stereo not given)	–	–	–	–	–	> 10	> 10	> 10	–
CC(C)(C)NC1CCc2ccc(Cl)cc2C1=O (stereo not given)	–	–	–	2.6	–	> 10	> 10	> 10	–
CC(C(=O)c1cccc(Cl)c1)N(C)C (stereo not given)	180	5.9	64%	9.3	90	> 10	–	–	Activity (Rattus norvegicus [13]): 100%; Activity (Rattus norvegicus [14]): 0%; Activity (Rattus norvegicus [15]): 18%; Activity (Rattus norvegicus [16]): 19%; Activity (Rattus norvegicus [2]): 83.3%; ED50 (Rattus norvegicus [17]): 5.3 mg/kg; Activity (Rattus norvegicus [12]): 83.2%; Activity (Rattus norvegicus [18]): 38%; Activity (Rattus norvegicus [19]): 33%; Activity (Rattus norvegicus [5]): 0%; Activity (Rattus norvegicus [20]): 0%; Activity (Rattus norvegicus [7]): 100%; Activity (Rattus norvegicus [21]): 33%; Activity (Rattus norvegicus [22]): 0%; Activity (Rattus norvegicus [23]): 0%
CC1C(=O)c2cc(Cl)ccc2CN1C(C)(C)C (stereo not given)	–	–	–	–	–	> 10	> 10	> 10	–
CCCNC(C)C(=O)c1cccc(Cl)c1 (stereo not given)	–	–	–	–	–	> 10	> 10	> 10	–
